In experiment [1] the test system is C. albicans. As to conditions: reported value; cited from earlier work.
The subject of experiment [2] is C. albicans. Kind of experiment: Antifungal activity of the formula, disk diffusion method. Type of experiment: cell-based. As to conditions: Candida albicans, 48 h, read-out: diameter inhibition zones. How it is done: The antifungal activity of the bacillus (10^8/ml) in the formula was determined using the disk diffusion method and was compared to that of empty formulation (without bacillus) and of ketoconazole 2% w/v in ethylene glycol (FIG. 11). A lawn of C. albicans (100 μl of 10^7 cells/ml) was spread on yeast extract-peptone-dextrose (YPD) agar petri dishes and tested solutions (10 μl ) were loaded on paper filter disks (6 mm in diameter) placed at the center of each dish and incubated at 37° C. for 48 h.

The structures appear in SMILES notation. Starred links: 1 amine or outer side, 2 acyl side, 3 side chain; linkers in the order of their positions; H or OH if unused. Positions of bridges follow the written chain, without caps; N, C: chain ends. Non-standard residues stand in square brackets, D forms with d. Residues, ends and D or L forms follow the SMILES beside them. X1 = CC(C)CCCCCCCCC[C@H](CC(=O)[*:1])O[*:2]

For the compound `CC(C)CCCCCCCCC[C@@H]1CC(=O)N[C@@H](CCC(=O)O)C(=O)N[C@@H](CC(C)C)C(=O)N[C@H](CC(C)C)C(=O)N[C@@H](C(C)C)C(=O)N[C@@H](CC(=O)O)C(=O)N[C@H](CC(C)C)C(=O)N[C@@H](CC(C)C)C(=O)O1` [Surfactin C15] (EL[dL]VD[dL]L; linker N-C via X1), in the experiment on C. albicans [1], the “synergistic anti-fungal MIC” value is 6.25 µg/mL.
For `CC(=O)N1CCN(c2ccc(OCC3COC(Cn4ccnc4)(c4ccc(Cl)cc4Cl)O3)cc2)CC1` (centres unmarked) [ketoconazole], in the experiment with C. albicans [2], the zone of inhibition at 2 % strength is 14 mm.

The values are drawn from patent US11633434B2, “Topical kits and compositions and use thereof” (priority 2017, dated 2023).
